Measured values from ChEMBL document CHEMBL3804811 (J Med Chem, 2016).

Tests used:
[1] = target: T1, Eukaryotic translation initiation factor 2-alpha kinase 3 (Homo sapiens, UniProt Q9NZJ5); test: Inhibition of PERK (unknown origin) in presence of gamma33-ATP
T1 sequence (Q9NZJ5 whole entry): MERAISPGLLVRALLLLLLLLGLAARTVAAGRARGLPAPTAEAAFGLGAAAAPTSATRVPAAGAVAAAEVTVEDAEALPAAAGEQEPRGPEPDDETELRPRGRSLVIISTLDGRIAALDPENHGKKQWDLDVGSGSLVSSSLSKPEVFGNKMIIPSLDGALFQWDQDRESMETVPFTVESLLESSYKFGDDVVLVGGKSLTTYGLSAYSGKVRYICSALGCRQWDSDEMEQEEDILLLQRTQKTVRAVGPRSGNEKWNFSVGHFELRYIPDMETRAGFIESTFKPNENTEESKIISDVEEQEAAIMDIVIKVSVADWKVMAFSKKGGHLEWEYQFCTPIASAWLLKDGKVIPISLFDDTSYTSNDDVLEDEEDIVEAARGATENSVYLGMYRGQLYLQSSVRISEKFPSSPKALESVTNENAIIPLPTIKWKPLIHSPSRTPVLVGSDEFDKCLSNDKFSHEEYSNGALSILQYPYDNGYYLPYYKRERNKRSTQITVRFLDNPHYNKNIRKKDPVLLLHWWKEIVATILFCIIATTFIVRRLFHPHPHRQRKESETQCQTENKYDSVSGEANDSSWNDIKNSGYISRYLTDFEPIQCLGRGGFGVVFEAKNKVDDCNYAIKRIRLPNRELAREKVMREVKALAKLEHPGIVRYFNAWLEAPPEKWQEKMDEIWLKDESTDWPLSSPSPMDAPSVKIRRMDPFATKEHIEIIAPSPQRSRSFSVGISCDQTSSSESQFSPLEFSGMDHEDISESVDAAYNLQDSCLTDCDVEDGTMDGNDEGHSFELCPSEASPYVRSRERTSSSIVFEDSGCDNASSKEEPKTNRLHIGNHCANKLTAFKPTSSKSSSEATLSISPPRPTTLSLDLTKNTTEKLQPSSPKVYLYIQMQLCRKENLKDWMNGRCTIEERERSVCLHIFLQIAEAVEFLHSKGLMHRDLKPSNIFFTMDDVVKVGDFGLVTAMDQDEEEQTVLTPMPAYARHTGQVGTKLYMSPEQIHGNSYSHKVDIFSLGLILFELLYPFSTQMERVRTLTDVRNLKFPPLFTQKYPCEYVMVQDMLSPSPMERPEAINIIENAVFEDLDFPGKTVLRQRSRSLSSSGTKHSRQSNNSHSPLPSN

[2] = target: T2, Eukaryotic elongation factor 2 kinase (Homo sapiens, UniProt O00418); test: Inhibition of EEF2K (unknown origin) in presence of gamma33-ATP
T2 sequence (O00418 whole entry): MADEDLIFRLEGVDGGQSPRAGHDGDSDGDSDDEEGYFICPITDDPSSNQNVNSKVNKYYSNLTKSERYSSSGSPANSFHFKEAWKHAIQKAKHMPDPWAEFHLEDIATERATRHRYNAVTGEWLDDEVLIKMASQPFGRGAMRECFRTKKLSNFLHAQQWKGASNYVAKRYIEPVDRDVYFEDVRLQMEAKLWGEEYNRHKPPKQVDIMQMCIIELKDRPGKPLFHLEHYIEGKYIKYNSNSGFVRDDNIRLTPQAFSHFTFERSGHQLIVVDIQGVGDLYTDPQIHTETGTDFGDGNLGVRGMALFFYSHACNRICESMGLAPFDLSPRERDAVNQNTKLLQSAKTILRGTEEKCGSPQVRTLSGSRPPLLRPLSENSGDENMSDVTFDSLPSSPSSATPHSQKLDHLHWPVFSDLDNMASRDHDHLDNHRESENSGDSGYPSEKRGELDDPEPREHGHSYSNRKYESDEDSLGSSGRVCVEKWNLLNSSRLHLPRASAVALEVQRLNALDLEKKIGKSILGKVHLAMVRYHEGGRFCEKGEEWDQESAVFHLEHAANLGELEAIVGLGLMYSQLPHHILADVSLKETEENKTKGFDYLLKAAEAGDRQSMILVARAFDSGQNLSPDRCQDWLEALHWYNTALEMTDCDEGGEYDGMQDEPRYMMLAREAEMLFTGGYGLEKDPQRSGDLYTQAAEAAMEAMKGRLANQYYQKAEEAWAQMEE

[3] = Plasma concentration in Harlan nu/nu mouse at 240 mg/kg, po administered per day for 2 weeks measured 6 hrs post last dose by LC-MS/MS analysis; type: ADME, organism-based
[4] = Inhibition of SULU1 (unknown origin) in presence of gamma33-ATP; design: species or system Homo sapiens
[5] = target: Mast/stem cell growth factor receptor Kit (Homo sapiens, UniProt P10721); test: Inhibition of KIT (unknown origin) in presence of gamma33-ATP
[6] = Antiproliferative activity against human SU-DHL1 cells expressing ALK protein incubated for 72 hrs by cell titer-glo assay; type: functional, cell-based; conditions: SU-DHL-1, 72 h
[7] = Tmax in Beagle dog at 10 mg/kg, po administered as single dose by LC-MS/MS analysis; type: ADME, organism-based, Canis lupus familiaris; conditions: in vivo
[8] = target: T3, Inhibitor of nuclear factor kappa-B kinase subunit beta (Homo sapiens, UniProt O14920); test: Inhibition of IKK2 (unknown origin) in presence of gamma33-ATP
T3 sequence (O14920 whole entry): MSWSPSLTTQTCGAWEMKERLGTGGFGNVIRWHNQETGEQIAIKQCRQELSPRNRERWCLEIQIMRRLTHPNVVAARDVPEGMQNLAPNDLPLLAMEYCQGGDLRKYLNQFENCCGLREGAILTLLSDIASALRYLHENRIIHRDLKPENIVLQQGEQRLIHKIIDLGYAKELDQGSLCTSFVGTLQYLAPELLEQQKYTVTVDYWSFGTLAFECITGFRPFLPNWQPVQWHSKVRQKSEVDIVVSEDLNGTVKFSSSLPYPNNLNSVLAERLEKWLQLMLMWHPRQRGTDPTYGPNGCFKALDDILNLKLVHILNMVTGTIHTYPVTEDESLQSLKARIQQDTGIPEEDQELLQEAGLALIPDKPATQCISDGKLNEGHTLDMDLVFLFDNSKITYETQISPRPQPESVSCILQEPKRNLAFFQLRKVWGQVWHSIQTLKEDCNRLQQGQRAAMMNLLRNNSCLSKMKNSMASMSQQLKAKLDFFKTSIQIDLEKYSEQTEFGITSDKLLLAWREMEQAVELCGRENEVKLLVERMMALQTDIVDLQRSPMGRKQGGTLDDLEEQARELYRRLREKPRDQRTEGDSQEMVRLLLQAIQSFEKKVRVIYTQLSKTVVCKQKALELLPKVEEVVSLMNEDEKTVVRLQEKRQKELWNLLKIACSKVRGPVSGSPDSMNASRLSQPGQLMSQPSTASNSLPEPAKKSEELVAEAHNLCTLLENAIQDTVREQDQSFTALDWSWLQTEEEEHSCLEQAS

Sequence of Mast/stem cell growth factor receptor Kit (P10721 whole entry): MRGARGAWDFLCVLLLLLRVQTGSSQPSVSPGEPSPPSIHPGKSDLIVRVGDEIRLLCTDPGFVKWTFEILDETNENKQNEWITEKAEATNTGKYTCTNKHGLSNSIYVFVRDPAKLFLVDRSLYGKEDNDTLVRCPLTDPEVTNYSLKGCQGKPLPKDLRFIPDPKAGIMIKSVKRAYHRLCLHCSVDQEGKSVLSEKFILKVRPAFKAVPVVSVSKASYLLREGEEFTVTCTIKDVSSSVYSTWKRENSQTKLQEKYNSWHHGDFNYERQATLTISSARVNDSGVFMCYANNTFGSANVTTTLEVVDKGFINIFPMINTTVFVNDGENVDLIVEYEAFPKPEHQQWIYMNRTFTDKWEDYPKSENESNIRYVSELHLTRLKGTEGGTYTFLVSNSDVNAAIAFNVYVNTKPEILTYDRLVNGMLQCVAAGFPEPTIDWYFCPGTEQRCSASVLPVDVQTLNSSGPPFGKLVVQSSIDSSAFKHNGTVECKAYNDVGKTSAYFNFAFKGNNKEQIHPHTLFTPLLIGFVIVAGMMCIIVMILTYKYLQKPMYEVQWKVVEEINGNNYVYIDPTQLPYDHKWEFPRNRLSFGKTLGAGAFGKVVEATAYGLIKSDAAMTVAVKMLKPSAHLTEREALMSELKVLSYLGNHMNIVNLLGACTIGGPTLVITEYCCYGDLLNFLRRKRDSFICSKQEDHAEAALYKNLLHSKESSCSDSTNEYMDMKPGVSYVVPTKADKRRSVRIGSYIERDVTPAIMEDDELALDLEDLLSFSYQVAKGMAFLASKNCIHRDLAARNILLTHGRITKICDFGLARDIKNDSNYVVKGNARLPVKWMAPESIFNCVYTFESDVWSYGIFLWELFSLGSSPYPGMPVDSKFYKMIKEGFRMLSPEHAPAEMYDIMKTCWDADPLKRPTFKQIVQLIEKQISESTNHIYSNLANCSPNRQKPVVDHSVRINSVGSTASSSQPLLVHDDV

CN1CCN(c2ccc(C(=O)Nc3n[nH]c4ccc(Cc5cc(F)cc(F)c5)cc34)c(NC3CCOCC3)c2)CC1 [ENTRECTINIB]
IC50 [1]: > 10 µM
IC50 [2]: > 10 µM
concentration at 6 h [3]: 4.57 µM
IC50 [4]: > 10 µM
IC50 [5]: > 1 µM
IC50 [6]: 0.024 µM
Tmax [7]: 2 h
IC50 [8]: > 10 µM
